Where a SMILES comes first, the peptide text is derived from it.
First: O=C(O)Cc1nn(Cc2nc3cc(C(F)(F)F)ccc3s2)c(=O)c2ccccc12
Second: O=C1c2ccc(C(F)(F)F)cc2OCN1CCO[N+](=O)[O-]
The logP of the first is lower: 2.37 for the first, 3.01 for the second.

Compared with `CC(C)CC(N)C(=O)N1CCCC1C(=O)NC(CC(C)C)C(=O)NC(CC(C)C)C(=O)O` (stereo unspecified) (H-LPLL-OH; configuration not given here), `CC(C)CC(N)C(=O)NC(CO)C(=O)NC(CC(C)C)C(=O)O` (stereo not drawn) (H-Leu-Ser-Leu-OH; configuration not given here) is lower in logP: -0.92 for the first, -2.35 for the second.

Compared with `CCCc1nc(NCC)nc(N2CCOCC2)n1`, `O=C1N=C(N2CCOCC2)CN1Cc1cccc(Cl)c1` is lower in logP: 2.23 for the first, 1.3 for the second.

Compared with `CC(CO)CCNc1ncnc2nc[nH]c12` (stereo unspecified), `CCCOCCCNc1ncnc2c1ncn2C1OC(CO)C(O)C1O` (stereo unspecified) is lower in logP: 1.16 for the first, 0.81 for the second.

Compared with `COCc1[nH]c(-c2ccc(OCC(O)CNCCc3ccc(OC)c(OC)c3)cc2)nc1C` (stereo unspecified), `COc1ccc(CCNCC(O)COc2ccc(-c3nc(CN4CCOCC4)c[nH]3)cc2)cc1OC` (stereo unspecified) is lower in logP: 2.8 for the first, 2.4 for the second.

First: NC(Cc1ccc(Cl)cc1)C(=O)O (stereo unspecified)
Second: NC(Cc1ccccc1)C(=O)NCC(=O)NCC(=O)NC(Cc1ccccc1)C(=O)O (stereo unspecified) (H-FGGF-OH; configuration not given here)
The logP of the first is higher: -0.47 for the first, -1.51 for the second.

First: O=C1c2cc(Cl)ccc2OCN1CCO[N+](=O)[O-]
Second: CCOP(=O)(NC(C)CC)Oc1cc(C)ccc1[N+](=O)[O-] (stereo unspecified)
The logP of the first is lower: 2.3 for the first, 2.73 for the second.

Going from `COC(=O)C1=C(C)NC(C)=C(C(=O)OC(C)C)C1c1cccc2c1OCO2` (stereo unspecified) to `CCOC(=O)C1=C(C)NC(C)=C(C(=O)OC)C1c1ccc(OC)c(OC)c1` (stereo unspecified), the logP falls from 4.15 to 3.6.

Compared with `C[N+](C)([O-])CCCc1ccccc1`, `S=C=NCCCCCCCCCCc1ccccc1` is higher in logP: -0.04 for the first, 6.82 for the second.

First: CNCCC=Cc1cccnc1
Second: CCCCNC(=O)Cn1cccc(O)c1=O
The logP of the first is higher: 1.13 for the first, 0.33 for the second.

First: COC(=O)c1c(N2CCOCC2)c(-c2ccc(Cl)cc2)cn1C(=O)N1CCOCC1
Second: COC(=O)c1c(N2CCOCC2)c(-c2ccc(Cl)cc2)cn1C(=O)c1ccccc1
The logP of the first is lower: 3.1 for the first, 5.5 for the second.

Compared with `COc1c2oc(=O)c(C)cc2cc2c(C)c(C)oc12`, `Clc1ccc2c(oc3c(Cl)cc(Cl)c(Cl)c32)c1Cl` is higher in logP: 3.28 for the first, 6.27 for the second.

Going from `O=c1ccc2cc3ccsc3cc2o1` to `CSc1cccc2nc(N)nc(N)c12`, the logP falls from 2.27 to 1.81.

`OCCCCCCNc1ncnc2c1ncn2C1OC(CO)C(O)C1O` (stereo unspecified) and `CCCCCCC(=O)Oc1ccc2c3c1OC1C(OS(=O)(=O)O)C=CC4C(C2)N(C)CCC341` (stereo unspecified) are within 0.2 log units of each other in logP: 0.23 for the first, 0.36 for the second.

Compared with `CCCC(=NOCC)C1=C(O)CC2(CCCCC2)OC1=O`, `CCCC(=O)OCOC(=O)N(C)N=Nc1ccc(C(=O)OCC)cc1` is higher in logP: 3.62 for the first, 4.51 for the second.

Going from `COC1=C(Cl)C(=O)c2ccccc2C1=O` to `CN(C)CCOc1ccccc1Cl`, the logP rises from 2.15 to 2.87.

`CN(c1nc2ccccc2s1)C1CCN(CC(O)COc2ccc(F)cc2)CC1` (stereo unspecified) and `CC(C)(C)NC(=O)[C@@H]1C[C@@H]2CCCC[C@@H]2CN1C[C@@H](O)[C@H](Cc1ccccc1)NC(=O)[C@H](CC(N)=O)NC(=O)c1ccc2ccccc2n1` are within 0.2 log units of each other in logP: 4.61 for the first, 4.7 for the second.

Going from `CC1CCC(C)N1C(=O)Nc1ccccc1` (stereo unspecified) to `CCNC1CCc2c(OC)cccc2C1C` (stereo unspecified), the logP rises from 2.33 to 2.67.

Going from `OCCN1CCN(CCn2nnc3ccccc32)CC1` to `CN1CCN(CCCOn2nnc3ccccc32)CC1`, the logP rises from -0.05 to 1.3.

Going from `ClCC1(CCl)C2C(Cl)C(Cl)C1(CCl)C(Cl)(Cl)C2Cl` (stereo unspecified) to `CC(C)COC(=O)n1cc(F)c(=O)[nH]c1=O`, the logP falls from 5.74 to 0.87.

Compared with `CCCCCCN=C=S`, `CCO[PH](=O)O` is lower in logP: 3.98 for the first, -2.7 for the second.

Going from `NC1=NCC(COc2cccc(Cl)c2)O1` (stereo unspecified) to `Clc1ccc(-c2cnn(-c3ccccn3)c2)cc1`, the logP rises from 2.09 to 4.3.

Compared with `Cc1ccc(OCC(O)C(C)NC(C)C)c2c1CCC2` (stereo unspecified), `COc1cnc(C2=NC(C)(C(C)C)C(=O)N2)c(C(=O)O)c1` (stereo unspecified) is lower in logP: 3.19 for the first, 0.61 for the second.

Compared with `CON=C(C(=O)NC1C(=O)N2C(C(=O)OCc3oc(=O)oc3C)=CCSC12)c1csc(N)n1` (stereo unspecified), `COC(=O)CNC(=O)Cn1c(C)nc2ccccc2c1=O` is higher in logP: 0.17 for the first, 0.4 for the second.

Going from `CC(C)(C)SSc1ncc[nH]1` to `Cc1cccc(C=[N+]([O-])C(C)(C)C)c1`, the logP falls from 2.56 to 1.6.

Compared with `CCC(C)C(N)C(=O)NC(C(=O)O)C(C)CC` (stereo not drawn) (H-Ile-Ile-OH; configuration not given here), `CCN(CC)CC(=O)NCC(=O)Nc1c(C)cccc1C` is higher in logP: -1.82 for the first, 2.2 for the second.

Compared with `Nc1ccc(S(=O)(=O)Nc2cccc3[nH]ccc23)cc1`, `COc1cc(NS(C)(=O)=O)ccc1-c1cn2cccnc2n1` is lower in logP: 1.41 for the first, 0.72 for the second.

`Fc1ccc(CNc2[nH]cnc3ncnc2-3)cc1` and `COc1cc2ncnc(Nc3ccccc3F)c2cc1OC` are within 0.2 log units of each other in logP: 2.34 for the first, 2.2 for the second.

First: CN1C(C(=O)Nc2ccccn2)=C(O)c2sc(Cl)cc2S1(=O)=O
Second: O=C1C=C(N2CCCC2)C(=O)N1c1ccc(Cl)cc1
The logP of the first is lower: 2.62 for the first, 3 for the second.

Going from `COc1cc2ncnc(Nc3cc(F)cc(C(F)(F)F)c3)c2cc1OC` to `CS(=O)(=O)CC(=O)C=NO`, the logP falls from 4.66 to -0.69.

With `CN1CCCNCC1` the logP was -0.4.

From the OPERA property sets (Mansouri et al. 2018)
